Patent US4224448A, “2'-(5'-Nitrofuryl) substituted quinolines” (priority 1966, dated 1980)
Converted amounts (≈) assume the structure as drawn.

What was measured:
Candida albicans = test: Minimum inhibitory concentration, conventional tube dilution method; format: cell-based; conditions: fungus, tube dilution, 37 degrees, 24 hours, between 1 and 6 strains, mg/100 cc, decimal comma, read-out: Minimal Inhibitory Concentration, Cand. Alb.
Description: (§1) The activity of some of the new nitrofuryl quinoline derivatives of the present invention is exemplified in Table 1 against a gram-positive (Staph. aureus), a gram-negative (Salmonella) bacterium and a fungus (Candida albicans). Table 1 indicates the minimum inhibitory concentration of the compound under reference in mg/100 cc required in order to inhibit the growth between 1 and 6 strains of each type. The measurements have been carried out by the conventional tube dilution method at 37 degrees after 24 hours.

Salmonella = test: as above; format: cell-based; conditions: gram-negative, tube dilution, 37 degrees, 24 hours, between 1 and 6 strains, mg/100 cc, decimal comma, read-out: Minimal Inhibitory Concentration, Salm.
Description: as §1

Compound	MIC (Candida albicans) [mg/L]	MIC (Salmonella) [mg/L]
CCOC(=O)c1cc(-c2ccc([N+](=O)[O-])o2)c2ccccc2n1 [COOC2 H5 H NF H H H H, 2-carbethoxy-4-[2'-(5'-nitrofuryl)]quinoline]	> 50	> 50
O=[N+]([O-])c1ccc(-c2cc(C=NO)[n+]([O-])c3ccccc23)o1 [O CHNOH H NF H H H H]	0.5 (≈ 1.67 µM)	1 to 5 (≈ 3.34 to 16.7 µM)
CC(=O)OCc1cc(-c2ccc([N+](=O)[O-])o2)c2ccc(OC(C)=O)cc2n1 [CH2 OCOCH3 H NF H H OCOCH3 H, 2-acetoxymethyl-4-[2'-(5'-nitrofuryl)]-7-acetoxy quinoline]	50 to 100 (≈ 135 to 270 µM)	10 to 25 (≈ 27 to 67.5 µM)
CC(=O)Oc1ccc2c(-c3ccc([N+](=O)[O-])o3)cc(C)nc2c1 [CH3 H NF H H OCOCH3 H]	10 (≈ 32 µM)	2 (≈ 6.4 µM)
COc1cc2c(cc1NC(C)=O)c(-c1ccc([N+](=O)[O-])o1)cc(C)[n+]2[O-] [O CH3 H NF H NHCOCH3 OCH3 H]	50 (≈ 140 µM)	10 to 25 (≈ 28 to 70 µM)
COc1ccc2c(-c3ccc([N+](=O)[O-])o3)cc(C)nc2c1 [CH3 H NF H H OCH3 H, 2-methyl-4-[2'-(5'-nitrofuryl)]-7-methoxy quinoline]	5 (≈ 17.6 µM)	10 (≈ 35.2 µM)
O=[N+]([O-])c1ccc(-c2cc(C=NNCCO)nc3ccccc23)o1 [drawing 9 H NF H H H H]	25 (≈ 76.6 µM)	5 (≈ 15.3 µM)
CC(=O)Oc1ccc2c(-c3ccc([N+](=O)[O-])o3)cc(C)[n+]([O-])c2c1 [O CH3 H NF H H OCOCH3 H]	50 (≈ 152 µM)	5 (≈ 15.2 µM)
O=[N+]([O-])c1ccc(-c2cc(C=NO)nc3ccccc23)o1 [CHNOH H NF H H H H, 4-[2'-(5'-nitrofuryl)]quinoline-2-carboxaldehyde oxime]	10 (≈ 35.3 µM)	5 (≈ 17.7 µM)
COc1cc2nc(C)cc(-c3ccc([N+](=O)[O-])o3)c2cc1NC(C)=O [CH3 H NF H NHCOCH3 OCH3 H, 2-methyl-4-[2'-(5'-nitrofuryl)]-6-acetylamino-7-methoxy-quinoline]	50 (≈ 146 µM)	> 50
NC(=O)NN=Cc1cc(-c2ccc([N+](=O)[O-])o2)c2ccccc2n1 [drawing 8 H NF H H H H]	25 to 50 (≈ 76.9 to 154 µM)	5 (≈ 15.4 µM)
CCc1cc(-c2ccc([N+](=O)[O-])o2)c2ccc(O)cc2[n+]1[O-] [O C2 H5 H NF H H OH H]	25 (≈ 83.3 µM)	5 (≈ 16.7 µM)
CNN=Cc1cc(-c2ccc([N+](=O)[O-])o2)c2ccccc2n1 [drawing 7 H NF H H H H]	10 to 25 (≈ 33.8 to 84.4 µM)	1 to 5 (≈ 3.38 to 16.9 µM)
CC(=O)c1cc(-c2ccc([N+](=O)[O-])o2)c2ccccc2n1 [COCH3 H NF H H H H, 4-[2'-(5'-nitrofuryl)]quinoline-2-methyl ketone]	> 50	> 50
COc1cc2nc(C)cc(-c3ccc([N+](=O)[O-])o3)c2cc1N [CH3 H NF H NH2 OCH3 H, 2-methyl-4-[2'-(5'-nitrofuryl)]-6-amino-7-methoxy-quinoline]	5 (≈ 16.7 µM)	1 to 5 (≈ 3.34 to 16.7 µM)
CCOc1ccc2c(-c3ccc([N+](=O)[O-])o3)cc(C=NO)nc2c1 [CHNOH H NF H H OC2 H5 H]	50 (≈ 153 µM)	> 50
COc1cc2c(cc1N)c(-c1ccc([N+](=O)[O-])o1)cc(C)[n+]2[O-] [O CH3 H NF H NH2 OCH3 H]	> 50	50 (≈ 159 µM)
Cc1ccc2c(-c3ccc([N+](=O)[O-])o3)cc(C)[n+]([O-])c2c1 [O CH3 H NF H H CH3 H]	5 (≈ 17.6 µM)	> 50
Cc1cc(-c2ccc([N+](=O)[O-])o2)c2ccc(O)cc2[n+]1[O-] [O CH3 H NF H H OH H, 2-Methyl-4-[2'-(5'-nitrofuryl)]-7-hydroxy quinoline N-oxide]	100 (≈ 349 µM)	5 to 10 (≈ 17.5 to 34.9 µM)
CC(=O)OCc1cc(-c2ccc([N+](=O)[O-])o2)c2ccccc2n1 [CH2 OCOCH3 H NF H H H H, 2-acetoxymethyl-4-[2'-(5'-nitrofuryl)]quinoline]	5 (≈ 16 µM)	> 50
